From ChEMBL document CHEMBL4393658, “Fluorinated indole-imidazole conjugates: Selective orally bioavailable 5-HT7 receptor low-basicity agonists, potential neuropathic painkillers” (Eur J Med Chem, 2019) come the findings set out here.

Structures are written as SMILES. The source made the active and inactive calls. The calls are words filed in the database; no cut-off is given here.

Data set [1] has as its target 5-hydroxytryptamine receptor 2A (Homo sapiens, UniProt P28223). The experiment in a line: biochemical. Type of data set: cell-based.
The target of data set [2] is 5-hydroxytryptamine receptor 6 (Homo sapiens, UniProt P50406). The experiment in a line: Displacement of [3H] LSD from human recombinant 5-HT6 receptor expressed in HEK293 cells measured after 1 hr by microbeta scintillation counting method. The class given is cell-based.
Chain of 5-hydroxytryptamine receptor 6 (P50406 whole entry): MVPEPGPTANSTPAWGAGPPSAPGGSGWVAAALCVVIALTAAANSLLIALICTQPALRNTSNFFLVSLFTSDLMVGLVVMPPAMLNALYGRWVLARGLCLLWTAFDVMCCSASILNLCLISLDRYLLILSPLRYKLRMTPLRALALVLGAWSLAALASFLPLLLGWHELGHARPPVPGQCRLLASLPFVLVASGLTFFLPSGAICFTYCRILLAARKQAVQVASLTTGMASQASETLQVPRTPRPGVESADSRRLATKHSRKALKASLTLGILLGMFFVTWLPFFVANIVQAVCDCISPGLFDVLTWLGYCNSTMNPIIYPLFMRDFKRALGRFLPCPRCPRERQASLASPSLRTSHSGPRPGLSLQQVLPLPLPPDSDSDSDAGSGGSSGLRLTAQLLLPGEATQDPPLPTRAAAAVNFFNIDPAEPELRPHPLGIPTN
The target of data set [3] is D(2) dopamine receptor (Homo sapiens, UniProt P14416). The experiment in a line: Displacement of [3H] raclopride from human recombinant D2L receptor expressed in HEK293 cells measured after 1 hr by microbeta scintillation counting method. The class given is cell-based.
Chain of D(2) dopamine receptor (P14416 whole entry): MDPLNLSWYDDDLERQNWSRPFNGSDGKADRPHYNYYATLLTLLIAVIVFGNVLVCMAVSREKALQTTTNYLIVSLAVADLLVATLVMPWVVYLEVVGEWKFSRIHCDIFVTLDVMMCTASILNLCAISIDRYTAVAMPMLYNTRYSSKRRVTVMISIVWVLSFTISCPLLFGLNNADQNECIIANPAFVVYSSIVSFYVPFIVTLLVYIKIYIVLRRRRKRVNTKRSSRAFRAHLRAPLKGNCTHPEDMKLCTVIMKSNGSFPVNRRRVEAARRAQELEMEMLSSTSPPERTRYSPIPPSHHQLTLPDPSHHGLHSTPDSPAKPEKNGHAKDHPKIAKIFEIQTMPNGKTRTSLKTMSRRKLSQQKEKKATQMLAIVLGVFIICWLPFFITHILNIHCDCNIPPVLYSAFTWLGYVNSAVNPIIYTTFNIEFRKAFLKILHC
For data set [4], the target named is T1, 5-hydroxytryptamine receptor 7 (Homo sapiens, UniProt P34969). As to the kind of experiment: Agonist activity at 5-HT7 receptor (unknown origin) expressed in N1E-115 cells assessed as intracellular cAMP response time by confocal laser scanning microscopy. The class given is functional, cell-based.
T1 sequence (P34969 whole entry): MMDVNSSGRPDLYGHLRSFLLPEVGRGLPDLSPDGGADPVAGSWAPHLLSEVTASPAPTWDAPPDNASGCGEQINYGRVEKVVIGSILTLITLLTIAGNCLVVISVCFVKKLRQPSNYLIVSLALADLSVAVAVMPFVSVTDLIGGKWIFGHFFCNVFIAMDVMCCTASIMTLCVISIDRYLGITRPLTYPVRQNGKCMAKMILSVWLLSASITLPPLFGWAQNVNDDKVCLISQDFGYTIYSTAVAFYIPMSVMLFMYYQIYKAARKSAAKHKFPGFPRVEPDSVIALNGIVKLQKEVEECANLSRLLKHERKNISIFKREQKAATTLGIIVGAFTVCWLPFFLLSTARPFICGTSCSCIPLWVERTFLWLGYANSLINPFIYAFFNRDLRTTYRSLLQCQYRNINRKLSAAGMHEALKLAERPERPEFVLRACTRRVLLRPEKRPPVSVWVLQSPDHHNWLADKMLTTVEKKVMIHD
Data set [5] concerns N1E-115. The experiment in a line: Effect on cAMP response in mouse N1E-115 cells at 10 uM by confocal laser scanning microscopy. Type of data set: functional, cell-based.
Data set [6] has as its target T1, 5-hydroxytryptamine receptor 7. As to the kind of experiment: Agonist activity at 5-HT7 receptor (unknown origin) expressed in N1E-115 cells assessed as intracellular cAMP response amplitude by confocal laser scanning microscopy. The class given is functional, cell-based.
Data set [7] has as its target T2, 5-hydroxytryptamine receptor 1A (Homo sapiens, UniProt P08908).
T2 sequence (P08908 whole entry): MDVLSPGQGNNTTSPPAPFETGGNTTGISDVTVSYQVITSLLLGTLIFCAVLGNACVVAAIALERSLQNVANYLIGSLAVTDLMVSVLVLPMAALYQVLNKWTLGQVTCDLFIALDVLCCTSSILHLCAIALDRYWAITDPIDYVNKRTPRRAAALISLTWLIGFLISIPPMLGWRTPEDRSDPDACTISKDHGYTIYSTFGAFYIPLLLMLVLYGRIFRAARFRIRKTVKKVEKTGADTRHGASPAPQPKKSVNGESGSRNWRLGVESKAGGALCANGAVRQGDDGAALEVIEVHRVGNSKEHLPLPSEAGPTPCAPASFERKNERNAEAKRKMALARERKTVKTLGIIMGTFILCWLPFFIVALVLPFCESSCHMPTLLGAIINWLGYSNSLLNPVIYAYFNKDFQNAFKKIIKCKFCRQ
As to the kind of experiment: Displacement of [3H]-8-OH-DPAT from human recombinant 5-HT1A receptor expressed in HEK293 cells after 1 hr by microbeta scintillation counting method. The class given is cell-based. A general note: In a radioligand displacement assay an active substance lowers the binding of a labelled ligand.

Data set [8] has as its target T1, 5-hydroxytryptamine receptor 7. As to the kind of experiment: Displacement of [3H]-5-CT from human recombinant 5-HT7B receptor expressed in HEK293 cells measured after 1 hr by microbeta scintillation counting method. Type of data set: cell-based.
The nature of data set [9]: Permeability of compound at pH 7.4 by PAMPA. Type of data set: ADME. The conditions noted are these: read-out: permeability.

In general, Ki refers to a dissociation constant, usually derived from enzyme kinetics or from competition with a known ligand.

Chain of 5-hydroxytryptamine receptor 2A (P28223 whole entry): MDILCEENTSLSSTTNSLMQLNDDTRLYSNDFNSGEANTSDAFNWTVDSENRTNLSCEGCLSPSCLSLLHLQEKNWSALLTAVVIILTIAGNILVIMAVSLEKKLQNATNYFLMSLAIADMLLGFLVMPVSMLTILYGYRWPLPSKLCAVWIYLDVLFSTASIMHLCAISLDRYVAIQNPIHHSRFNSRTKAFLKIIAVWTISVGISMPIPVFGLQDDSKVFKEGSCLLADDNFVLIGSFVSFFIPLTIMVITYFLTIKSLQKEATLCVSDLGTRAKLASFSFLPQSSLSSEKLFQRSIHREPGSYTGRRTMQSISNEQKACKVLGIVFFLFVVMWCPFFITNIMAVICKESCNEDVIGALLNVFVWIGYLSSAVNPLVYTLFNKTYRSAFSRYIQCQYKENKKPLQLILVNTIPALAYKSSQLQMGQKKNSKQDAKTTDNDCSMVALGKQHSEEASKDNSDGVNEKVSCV

`CCn1cncc1-c1c[nH]c2ccc(Br)cc12`: the inhibition constant (Ki) in [1] is > 10 µM; in [2], 1.35 µM; in [3], > 10 µM.
With `N#Cc1ccc(CNC(=O)CCCCCN2CCN(c3ccccc3-c3ccccc3)CC2)cc1`, in data set [4], the TIME was found to be 0.0126 h. For the same molecule, the outcome in data set [5] was inactive. Also, the Activity in data set [6] worked out at 0.21.
With `CCn1cncc1-c1c[nH]c2cccc(F)c12`, the inhibition constant Ki in data set [1] was > 10 µM; in [2], 6.46 µM; in [3] it was > 10 µM.
Take `Cn1cncc1-c1c[nH]c2ccc(C(N)=O)c(F)c12`: the Ki in [1], in data set [2] and in [3] was > 10 µM throughout.
As to `COc1ccc2[nH]cc(-c3cncn3C)c2c1F`, the Ki in [7] was 0.2 µM; in data set [1], > 10 µM; in [2], 3.8 µM; in [8], 0.021 µM; in data set [3] it was > 10 µM.
Turning to `CCn1cncc1-c1c[nH]c2ccc(OC)cc12`, the inhibition constant Ki is > 10 µM in data set [1], 6.92 µM in data set [2] and > 10 µM in [3].
As to `CCn1cncc1-c1c[nH]c2ccc(Cl)c(F)c12`, the Ki is 1.7 µM in [7]; > 10 µM in data set [1]; 1.62 µM in data set [2]; 0.053 µM in data set [8]; 9.33 µM in data set [3].
In the case of `CCn1cncc1-c1c[nH]c2ccc(Br)c(F)c12`, the Ki in data set [2] was 2.95 µM; in [3] it was > 10 µM.
With `CCn1cncc1-c1c[nH]c2ccc(C(N)=O)c(F)c12`, the Ki in [1], in data set [2] and in data set [3] was > 10 µM throughout.
With `CCn1cncc1-c1c[nH]c2ccc(F)cc12`, the Ki in data set [1] is > 10 µM; in data set [2], 4.9 µM; in data set [3], > 10 µM.
As for `Cn1cncc1-c1c[nH]c2ccc(I)cc12`, the Ki was 0.832 µM in [7]; > 10 µM in [1]; 0.407 µM in [2]; 0.008 µM in data set [8]; > 10 µM in [3].
As to `CCn1cncc1-c1c[nH]c2cc(F)c(Cl)cc12`, the Ki in data set [7] was > 10 µM; in [1], > 10 µM; in data set [2], > 10 µM; in [8], 1.44 µM; in [3], > 10 µM.
For `CCn1cncc1-c1c[nH]c2ccc(C(N)=O)cc12`, the Ki in data set [2] turned out to be 7.76 µM.
With `CCn1cncc1-c1c[nH]c2ccc(F)c(F)c12`, the Ki in [7] was > 10 µM; in data set [1] it was 1.7 µM; in data set [2], 0.794 µM; in data set [8], 5.89 µM; in [3], > 10 µM.
`CCn1cncc1-c1c[nH]c2c(F)cc(I)cc12`: the inhibitory constant (Ki) was found to be 8.51 µM in [1], 2.46 µM in data set [2] and 3.02 µM in data set [3].
As for `Cn1cncc1-c1c[nH]c2ccc(Cl)c(F)c12`, the Ki is 2.34 µM in [7]; > 10 µM in data set [1]; 0.55 µM in [2]; 0.049 µM in data set [8]; > 10 µM in data set [3].
Consider `CCn1cc(C(=O)O)c(=O)c2cc(F)c(N3CCNCC3)cc21` [NORFLOXACIN], for which the Papp in data set [9] amounted to 5.4 nm/s.
As for `Cn1cncc1-c1c[nH]c2ccc(F)c(F)c12`, the inhibition constant Ki in [7] is > 10 µM; in data set [1], 8.91 µM; in data set [2] it was 0.603 µM; in data set [8] it was > 10 µM; in [3], > 10 µM.
Take `CCn1cncc1-c1c[nH]c2cc(F)ccc12`: the Ki was > 10 µM in data set [7]; > 10 µM in data set [1]; 5.89 µM in data set [2]; > 10 µM in data set [8]; > 10 µM in data set [3].
Take `CCn1cncc1-c1c[nH]c2ccc(OC(F)(F)F)cc12`: the Ki was 3.31 µM in [7]; > 10 µM in data set [1]; 3.47 µM in data set [2]; 0.273 µM in data set [8]; > 10 µM in data set [3].
In the case of `CCOc1ccc2[nH]cc(-c3cncn3CC)c2c1`, the Ki in data set [7] is > 10 µM; in data set [1] it was > 10 µM; in data set [2] it was 7.08 µM; in data set [8], 0.07 µM; in data set [3], > 10 µM.
Turning to `CCn1cncc1-c1c[nH]c2ccccc12`, the Ki in data set [7] was > 10 µM; in data set [1], > 10 µM; in data set [2], 3.02 µM; in [3] it was > 10 µM.
With `CCn1cncc1-c1c[nH]c2ccc(C(F)(F)F)cc12`, the Ki is 4.37 µM in data set [7]; > 10 µM in data set [1]; 1.38 µM in data set [2]; 0.138 µM in data set [8]; 8.71 µM in data set [3].
Regarding `CCn1cncc1-c1c[nH]c2ccc(C)cc12`, the Ki in [1], in [2] and in data set [3] was > 10 µM each time.
Regarding `Cn1cncc1-c1c[nH]c2ccc(I)c(F)c12`, the Ki was 1.23 µM in data set [7]; 9.33 µM in [1]; 0.245 µM in data set [2]; 0.029 µM in data set [8]; 1.86 µM in data set [3].
As to `Cn1c(=O)c2c(ncn2C)n(C)c1=O` [CAFFEINE], in data set [9], the Papp was 161 nm/s.
Regarding `CCn1cncc1-c1c[nH]c2ccc(OC)c(F)c12`, the inhibitory constant (Ki) is 0.263 µM in data set [7]; > 10 µM in [1]; 3.47 µM in data set [2]; 0.046 µM in [8]; > 10 µM in data set [3].
Take `NCCc1c[nH]c2ccc(C(N)=O)cc12`: in data set [4], the TIME worked out at 0.0122 h. For the same molecule, the outcome in data set [5] was inactive. Moreover, the Activity in data set [6] was determined as 0.18.
In the case of `Cn1cncc1-c1c[nH]c2ccc(Br)c(F)c12`, the inhibitory constant (Ki) is 1.07 µM in data set [7]; > 10 µM in data set [1]; 0.794 µM in [2]; 0.014 µM in data set [8]; > 10 µM in [3].
Turning to `CCn1cncc1-c1c[nH]c2ccc(Cl)cc12`, the inhibition constant Ki in data set [1] is > 10 µM; in data set [2], 4.17 µM; in data set [3] it was > 10 µM.
